Assay results reported in ChEMBL document CHEMBL1240318, “Developing a new resource for drug discovery: marine actinomycete bacteria” (2006).
In brackets after ≈: the same amount, converted by molar mass.

Key:
Type in all cases: functional
[1] = system: SK-MEL-5; assay: Antitumor activity against human SK-MEL-5 cells; settings: read-out: LC50 (the source's name)
[2] = system: Staphylococcus aureus; assay: Antimicrobial activity against methicillin-resistant Staphylococcus aureus assessed as growth inhibition
[3] = system: Enterococcus faecium; assay: Antimicrobial activity against vancomycin-resistant Enterococcus faecium assessed as growth inhibition
[4] = system: Candida albicans; assay: Antimicrobial activity against amphotericin-resistant Candida albicans

`C\C1=C/C=C/C=C/C=C/c2cccc(O)c2C(=O)O[C@@H](C[C@@H](C)O)C[C@@H](O)C/C=C/[C@@H](O)C[C@@H](O)CC(C)/C=C/C=C/C=C/C=C/c2cccc(O)c2C(=O)O[C@@H](C[C@@H](C)O)C[C@@H](O)C/C=C/[C@@H](O)C[C@@H](O)C1` (some centres undefined) [MARINOMYCIN A] gave a CC50 [1] of 5 nM, an MIC [2] of 0.1 µM (≈ 0.101 µg/mL) and an MIC [3] of 0.1 µM (≈ 0.101 µg/mL). For the same compound, the MIC90 [4] was 7.8 µM (≈ 7.89 µg/mL).
